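These data come from cells grown in 96-well plates and exposed to compound for 48 hours at five concentrations. The concentration for 50% growth inhibition is given as GI50.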 The source made the active and inactive calls. No stated cut-off is given here; in the data, active = GI50 up to about 1.1 µM and inactive = higher.
Tests used:
Assay in all cases: NCI tumour cell line growth inhibition, 48 h
DLD-1 = tested on: DLD-1
DMS-273 = tested on: DMS-273
RXF 631 = tested on: RXF 631
XF498 = tested on: XF498
DMS-114 = tested on: DMS-114
KM-20L2 = tested on: KM-20L2
LXFL 529 = tested on: LXFL 529
HOP-18 = tested on: HOP-18
SNB-78 = tested on: SNB-78

Compound | GI50 (DLD-1) | GI50 (DMS-273) | GI50 (RXF 631) | GI50 (XF498) | GI50 (DMS-114) | GI50 (KM-20L2) | GI50 (LXFL 529) | GI50 (HOP-18) | GI50 (SNB-78)
CNS(=O)(=O)NN(C)S(=O)(=O)c1ccc(Br)cc1 | > 10 µM (inactive) | > 100 µM (inactive) | > 100 µM (inactive) | > 100 µM (inactive) | > 100 µM (inactive) | > 100 µM (inactive) | > 100 µM (inactive) |  | 
COC(=O)c1c(-c2ccccc2)sc(-c2cccc3ccccc23)c1C(=O)OC | 18 µM (inactive) | > 100 µM (inactive) |  |  |  | > 100 µM (inactive) | > 100 µM (inactive) | > 100 µM (inactive) | > 100 µM (inactive)
Cc1c(/C=N/NC(=O)c2cc(Br)cc(Br)c2O)c(=O)n(-c2ccccc2)n1C | 67.1 µM (inactive) | 5.25 µM (inactive) |  | 17.6 µM (inactive) | 38.5 µM (inactive) | 58.3 µM (inactive) | 75.9 µM (inactive) |  | > 100 µM (inactive)
COC1=CC(=O)C2C(C1=O)[C@@H]1c3ccccc3OC(C)(C)[C@H]21 (some centres undefined) | 19.2 µM (inactive) | 22.9 µM (inactive) |  | 18.1 µM (inactive) | 20.7 µM (inactive) | 27.1 µM (inactive) | 18.7 µM (inactive) |  | 18.8 µM (inactive)
NC(CCc1ncc(-c2ccccc2)s1)C(=O)O (centres undefined) | > 100 µM (inactive) | > 100 µM (inactive) | > 100 µM (inactive) |  | > 100 µM (inactive) |  | > 100 µM (inactive) | > 100 µM (inactive) | > 100 µM (inactive)
O=C1OC2C(O)COC2(O)C1(O)C(C[N+](=O)[O-])c1ccc(Cl)cc1 (centres undefined) | 1.81 µM (inactive) | 3.3 µM (inactive) |  |  | 2.76 µM (inactive) | 2.51 µM (inactive) | 1.95 µM (inactive) | 9.02 µM (inactive) | 13.8 µM (inactive)
CCOC(=O)C1=C(O)C(=O)c2cc(C)ccc2C1=O | > 100 µM (inactive) | > 100 µM (inactive) |  | > 100 µM (inactive) | > 100 µM (inactive) | > 100 µM (inactive) |  | 45.5 µM (inactive) | > 100 µM (inactive)
Cc1c(C(=O)CSc2nc3cc([N+](=O)[O-])ccc3[nH]2)c(=O)n(-c2ccccc2)n1C | > 100 µM (inactive) | > 100 µM (inactive) |  | > 100 µM (inactive) | > 100 µM (inactive) |  | > 100 µM (inactive) |  | 
Cc1c(N2CCOCC2)nc2ccc(Cl)cc2c1-c1ccccc1 |  | 59.8 µM (inactive) |  |  | 70.1 µM (inactive) |  | 61.2 µM (inactive) |  | > 100 µM (inactive)
CCOP(=O)(OCC)/C(C#N)=C\c1ccc(OC(C)=O)cc1 | > 100 µM (inactive) |  |  | > 100 µM (inactive) | > 100 µM (inactive) | > 100 µM (inactive) | > 100 µM (inactive) | > 100 µM (inactive) | > 100 µM (inactive)
Cc1cc2c(=O)c3ccc(Cl)cc3[nH]c2c(C(N)=O)c1C | > 100 µM (inactive) | > 100 µM (inactive) | > 100 µM (inactive) | > 100 µM (inactive) | > 100 µM (inactive) | > 100 µM (inactive) | > 100 µM (inactive) |  | > 100 µM (inactive)
COC(=O)/C(C#N)=C(\N)C(Cl)(Cl)Cl | 1.17 µM (inactive) | 3.45 µM (inactive) | 2.78 µM (inactive) | 1.78 µM (inactive) | 3.73 µM (inactive) | 29.7 µM (inactive) | 2.7 µM (inactive) |  | 6.18 µM (inactive)
COc1cc(NCC(C#N)C#N)ccc1/N=N/c1ccc([N+](=O)[O-])cc1 | > 100 µM (inactive) | > 100 µM (inactive) | > 100 µM (inactive) |  | 65.2 µM (inactive) | > 100 µM (inactive) | 37.6 µM (inactive) | > 100 µM (inactive) | > 100 µM (inactive)
C[N+](C)(C)CC1CCCC1=O (centres undefined) | 1.01 µM (active) | 6.87 µM (inactive) | 14.2 µM (inactive) | 1.87 µM (inactive) | 3.24 µM (inactive) | 2.61 µM (inactive) | 1.26 µM (inactive) | 1.87 µM (inactive) | 3.24 µM (inactive)
CC1OC(OC2CCCc3c(O)c4c(c(O)c32)C(=O)c2ccccc2C4=O)CC(N)C1O (centres undefined) | 1.33 µM (inactive) |  | 1.5 µM (inactive) | 1.93 µM (inactive) | 1.69 µM (inactive) | 2.01 µM (inactive) | 1.55 µM (inactive) |  | 1.89 µM (inactive)
CCCOP1(=O)C=CC(Cl)=C(C)C1 (centres undefined) | 20.6 µM (inactive) |  |  | 23.6 µM (inactive) | 25.4 µM (inactive) | 48.1 µM (inactive) | 23.7 µM (inactive) | 50.4 µM (inactive) | 53.1 µM (inactive)
CCCN1CN(C(C(=O)N[C@@H]2C(=O)N3C2SC(C)(C)C3C(=O)O)c2ccccc2)CSC1=S (some centres undefined) | 84.1 µM (inactive) | 48.8 µM (inactive) |  | > 100 µM (inactive) | 54 µM (inactive) | > 100 µM (inactive) | 70.5 µM (inactive) | > 100 µM (inactive) | > 100 µM (inactive)
COc1cc2c(cc1OC)C(=O)C(C1=C(SC(=N)N)C(=O)c3cc(OC)c(OC)cc31)C2 (centres undefined) | > 100 µM (inactive) | > 100 µM (inactive) |  | > 100 µM (inactive) | > 100 µM (inactive) | > 100 µM (inactive) | > 100 µM (inactive) |  | > 100 µM (inactive)
CCOc1ccc(/C=C/C(=O)c2sc(NNC(C)=O)nc2C)cc1 | > 100 µM (inactive) | > 100 µM (inactive) |  |  | > 100 µM (inactive) | > 100 µM (inactive) |  | > 100 µM (inactive) | > 100 µM (inactive)
COc1nc2nccc-2c2occn12 | > 100 µM (inactive) | > 100 µM (inactive) | > 100 µM (inactive) | > 100 µM (inactive) | > 100 µM (inactive) | > 100 µM (inactive) | > 100 µM (inactive) | > 100 µM (inactive) | > 100 µM (inactive)
O=C1O[B-](c2ccccc2)(c2ccccc2)[NH2+]C1CS (centres undefined) | 33 µM (inactive) | 34.9 µM (inactive) | 50.8 µM (inactive) | > 100 µM (inactive) | 34.9 µM (inactive) | 64.7 µM (inactive) | 39.9 µM (inactive) | > 100 µM (inactive) | 65.9 µM (inactive)
CCOC(=O)N[C@@H]1C(CC(=O)OC)O[C@H]2OC(C)(C)O[C@H]21 (some centres undefined) | > 100 µM (inactive) | > 100 µM (inactive) | > 100 µM (inactive) | > 100 µM (inactive) | > 100 µM (inactive) | > 100 µM (inactive) | > 100 µM (inactive) | > 100 µM (inactive) | > 100 µM (inactive)
